The text below walks through data of patent US20250000875A1, “ALLOPREGNANOLONE ANALOGUES FOR HIV VIREMIA AND NEUROTOXICITY PROTECTION” (priority 2021, published 2025).

One data set concerns HIV-1BaL. Kind of data set: anti-viremic capacity: HIV-1BaL replication in primary human microglia, p24 accumulation. Type of data set: cell-based. The settings on record: for HIV-1BaL replication, accumulation of p24 HIV capsid protein: HIV-1BaL 1 ng/mL p24, over 10 days; for effect on efficacy of cART when co-administered: co-administered with cART. The procedure:
[…] Corp.) as described previously.
Assessment for viremia: Media, compounds 1-6, or 3α,5α-THP was assessed in a dose-response curve (0.1, 0.3, 1, 3.2, 10, 32, 100, 320, 1×10^3, 10×10^3, 100×10^3 nM) for their anti-viremic capacity (FIG. 9). To monitor infection, samples are taken every 72 h to measure p24 or proviral DNA129-130. Infection was confirmed post-hoc via immunocytochemical imaging of HIV-1 negative regulatory factor (Nef). As needed, TZM-bl and Jurkat reporter cells were also used to determine viral proliferation.
Interactions with cART: Efficacious concentrations were re-assessed in separate mock- or HIV-1BaL-infected cultures in the presence or absence of Triumeq® [Abacavir (ABC; 10 μM)/dolutegravir (DTG; 1 nM)/lamivudine (3TC; 30 μM) dosing derived from FDA-approved insert] to assess interactions with viremic control, cytotoxicity, and cytokine production.

Data set [1] deals with mouse primary medium spiny neurons in mixed glial co-culture. The experiment in a line: Tat and/or gp120 neurotoxicity (necrosis, propidium iodide) in neuron/mixed glia co-culture. In kind it is cell-based. To be noted: for baseline cell death: highest concentrations; for Tat and/or gp120-mediated necrosis / neurotoxicity: pretreatment, 0.001-10×10^3 nM, HIV-1 Tat and/or gp120 for 20 h. How it is done: The trans-diol analogue of 3α, 5α-THP, 5α-pregnan-2β,3α-diol-20-one (compound 1) was synthesized. Mixed glia (derived from 0-1 day old mouse pups) and primary medium spiny neurons (from the striatum of E17 pups) were co-cultured as previously described. Co-cultures were pretreated with a concentration-response curve (0.001-10×10^3 nM) of 3α,5α-THP or the analogue, 1, and exposed to HIV-1 Tat and/or gp120 for 20 h. Prior time-lapse experiments have identified this time-point as the earliest time at which 3α,5α-THP protection is evident. Each treatment group consisted of 3 independent observations (with 2 technical replicates each). Necrotic cells were identified via propidium iodide labeling.

The conditions of data set [2]: rabbits or mice, cited from earlier work.
The conditions of data set [3]: women following three consecutive SC injections; cited from earlier work.
Data set [4] has as its system primary, mouse splenocytes. Kind of data set: mitogen-stimulated proliferation of splenocytes. In kind it is cell-based. The settings on record: high concentrations.
Data set [5] addresses HIV-1 trans-activation response element. The settings on record: read-out: affinity; cited from earlier work.

Molecules are shown by their SMILES.

Take `CC(=O)[C@H]1CC[C@H]2[C@@H]3CC[C@H]4C[C@H](O)CC[C@]4(C)[C@H]3CC[C@]12C` [3α,5α-THP, 5α-pregnan-3α-ol-20-one]: in the data set on HIV-1BaL, the “HIV-1BaL replication, accumulation of p24 HIV capsid protein” value was “attenuates” and the “effect on efficacy of cART when co-administered” value is on record as “Neither AlloP nor 1 impairs the efficacy of cART”. The “increase in cell death” value in data set [1] (at 10 nM) was found to be 5.7%. In data set [1], the baseline cell death result is “increased baseline cell death modestly” and the “Tat and/or gp120-mediated necrosis / neurotoxicity” value is reported as “significantly attenuated necrosis at every dose assessed”. In addition, the “elimination half-life (t1/2z)” value in data set [2] (administered subcutaneously) was 0.2 to 0.667 h. For the same compound, the “elimination half-life (t1/2z) in brain” value in data set [2] (infused IV) was roughly 4 h. Besides, in data set [3], the plasma clearance was roughly 4 h.
As to `CC(=O)[C@H]1CC[C@H]2[C@@H]3CC[C@H]4C[C@H](O)[C@@H](O)C[C@]4(C)[C@H]3CC[C@]12C` [compound 1, 2β,3α-dihydroxy-5α-pregnan-20-one], in the data set with HIV-1BaL, the “HIV-1BaL replication, accumulation of p24 HIV capsid protein” value is given as “attenuates” and the “effect on efficacy of cART when co-administered” value was “Neither AlloP nor 1 impairs the efficacy of cART”. Moreover, in data set [1], the “potency in ameliorating Tat-neurotoxicity relative to 3α,5α-THP” value is given as “equipotent to 3α,5α-THP” and the baseline cell death result was “increased baseline cell death modestly”. Moreover, the “increase in cell death” value in data set [1] (at 1 nM) stood at 8.8%. Further, in data set [1] (at 10 nM), the “increase in cell death” value was 10.5%. Besides, in data set [1] (listed as analogue 1), the “Tat and/or gp120-mediated necrosis / neurotoxicity” value is on record as “significantly attenuated necrosis at every dose assessed”.
Turning to `C[C@]12C[C@H](O)[C@H]3[C@@H](CCC4=CC(=O)CC[C@@]43C)[C@@H]1CC[C@@H]2C(=O)CO` [corticosterone], the mitogen-stimulated proliferation result in data set [4] is on record as “reduce mitogen-stimulated proliferation”.
With `CN(C)[C@H]1C[C@@]23CC[C@@]4(O2)C(=CC[C@]2(C)C(c5ccc6ccncc6c5)=CC[C@H]24)C=C3[C@@H](O)[C@@H]1O` [dCA, didehydro-cortistatin A], in data set [5], the Kd is 1 to 2 nM.
